Assay results published in article PMC6629785, “Synthesis and Pharmacological Evaluation of a Novel Peptide Based on Anemonia sulcata BDS-I Toxin as a New KV3.4 Inhibitor Exerting a Neuroprotective Effect Against Amyloid-β Peptide” (Frontiers in Chemistry, 2019).
Ends that are not written are not given here.

Tests used:
caspase-3 activation = test: Western blot of cleaved (activated) caspase-3 after Aβ1−42 exposure; type: cell-based, Rat; conditions: peptide 100 nM, 30 min pre-treatment; Aβ1−42 oligomers 5 μM, 24 h; western blot densitometry, 3 sessions
Method: (§1) Rat pheochromocytoma cells (PC-12 cells) were grown as previously described (Pannaccione et al., [2005], [2007]). For all the experiments, cells were seeded at low density on glass cover-slips coated with poly-L-lysine (50 μg/ml). Differentiation of PC-12 cells was achieved by treatment with neuronal growth factor (NGF) 2.5 S (50 ng/ml) for 7–9 days (Greene and Tischler, [1976]). For electrophysiological experiments, cells were seeded on glass cover-slips and used after 7–9 days of NGF. […]
NGF-differentiated PC-12 and CHO cells were washed in phosphate buffered saline (PBS) and collected by gentle scraping in ice-cold RIPA buffer containing in mM: 50 Tris pH 7.4, 100 NaCl, 1 EGTA, 1 PMSF, 1 sodium orthovanadate, 1 NaF, 0.5% NP-40, and 0.2% SDS supplemented with protease inhibitor cocktail II. […] The protein content of resulting supernatant was determined using the Bradford reagent. […]
(§2) The peptide used in our study was synthesized by INBIOS (Pozzuoli, Naples, Italy) using the Aβ1−42 sequence of human APP [UniProtKB-P05067 (A4_HUMAN)]. The purity of the peptide was assessed by high-performance liquid chromatography (>95% pure) and the amino acid composition was verified by mass spectrometry. […] The pre-aggregated preparation of Aβ oligomers was analyzed in SDS-PAGE using the rabbit monoclonal anti-Aβ on precast gels 4-20%. […]

[1] = test system: NGF-differentiated PC-12 cells; test: Assessment of nuclear morphology with Hoechst-33258 after Aβ1−42 exposure; type: cell-based, Rat; conditions: peptide 100 nM pre-treatment; Aβ1−42 oligomers 5 μM, 24 h; Hoechst staining; 3 separate experiments, ~1,000 cells per group
Method: as §1
Nuclear morphology was evaluated by using the fluorescent DNA-binding dye Hoechst-33258 already described (Pannaccione et al., [2007]).
as §2
Figure 7 Effect of BDS-I[1-8] on Aβ1−42-induced abnormal nuclear morphology and caspase-3 activation in NGF-differentiated PC-12 cells. […] Values are expressed as mean±SEM of 3 independent experimental sessions. […]

Substance | effect on Aβ1−42-induced caspase-3 activation (caspase-3 activation) | effect on abnormal nuclear morphology induced by Aβ1−42 exposure [1]
AAPAFASG [BDS-I[1-8]] | prevented | able to significantly prevent
H-GSAFAPAA-OH [BDS-I[1-8scr]] | did not | –
blood depressing substance-I [BDS-I] | – | able to significantly prevent
